Test results reported in patent publication US5965106A, “In vivo binding pair pretargeting” (PerImmune Holdings, Inc., priority 1995, dated 1999).

How the values were obtained:
[1] = Biodistribution and clearance in rabbits; format: in vivo, New Zealand white rabbit; details: rabbit
Description: In order to compare the biodistribution and clearance of ^111 In-DTPA-MTX with that of ^111 In-DTPA in the New Zealand white rabbit, approximately 140-190 μg and 120 μCi of each agent is administered to three animals each by intravenous injection in the central ear […]. One animal of each group is sacrificed at 1, 4 and 24 hours after injection.

[2] = Biodistribution and clearance in nude mice; format: in vivo, nude mouse
Description: In order to compare the biodistribution and clearance of ^111 In-DTPA-MTX with that of ^111 In-DTPA in the nude mouse, ^111 In-DTPA-MTX is administered at a dose of 9 μg and 8 μCi and ^111 In-DTPA is administered at a dose of 9 μg and 7 μCi by intravenous injection into the lateral tail vein. Animals are sacrificed a 1, 2, 4 and 24 hours after injection in groups of three animals per time point. […] In addition, there is low uptake of the MTX conjugate in the liver which is not seen with the labeled DTPA.

[3] = in vivo; cited from earlier work
[4] = Whole body clearance from athymic mice; format: in vivo, athymic nu/nu mice; details: 50 uCi, lateral tail vein, 0.5-24 hours
Description: Clearance of the ^111 In-DTPA-MTX at a rate similar to that of ^111 In-DTPA would indicate that rapid body clearance of the portion of the conjugate not bound in tumor tissue by antibody-DHFR may be expected. Such rapid clearance would ensure that nearly all the unbound radionuclide would decay outside the body.
Three athymic nu/nu mice were injected via the lateral tail vein with 50 uCi ^111 In-DTPA-MTX in 0.5 mL 10% normal mouse serum in phosphate buffered normal saline. A second group of three animals received 50 uCi ^111 In-DTPA by the same route. All animal were examined for whole body retention of In-111 in a Capintec dose calibrator at 0.5, 1, 2, 3, 4, and 24 hours after injection.

16.88 bound rhDHFR = assay: Inhibition of DHFR bound in an antibody-DHFR complex by MTX and DTPA-MTX, versus native rhDHFR; details: 16.88-DHFR titrated to activity of native rhDHFR
rhDHFR [5] = assay: Inhibition of rhDHFR by MTX and DTPA-MTX (dihydrofolate reduction, A340); format: biochemical, human; details: 1×10^-8 M and 5×10^-9 M inhibitor concentration, 22° C., pH 7.5
Description: Dihydrofolate reductase concentrations of 10^-7 -10^-9 M are easily assayed by monitoring the time dependent decrease in A340 caused by the reduction of dihydrofolate and the oxidation of the cofactor nicotinadenine dinucleotide phosphate (NADPH). The assay is performed at 22° C. (room temperature) in 50 mM Tris, pH 7.5 and 60 μM NADPH and initiated by adding dihydrofolate to 50 μM. One enzyme unit is equivalent to the amount of enzyme required to reduce 1 μmole of dihydrofolate to 1 μmole tetrahydrofolate in 1 min. at 22° C. and can be quantitated using an extinction coefficient of 12,300 M^-1 cm^-1.
The inhibition rate of DHFR by MTX and its derivatives is determined by the decrease in the conversion of dihydrofolate to tetrahydrofolate. […] Derivatives of methotrexate are evaluated by comparing inhibition rates to the inhibition rate of MTX at equivalent concentrations.
The effects of modifying methotrexate with DPTA were unknown and required a comparison of the activity of equimolar concentrations of methotrexate and DTPA-MTX. […] The inhibition of rhDHFR by MTX and DTPA-MTX were then measured under the assay conditions mentioned earlier and compared.

[6] = tested on: wild-type recombinant human dihydrofolate reductase (rhDHFR); details: noncovalent binding; cited from earlier work
rhDHFR [7] = assay: Stability of conjugated enzyme: percent DHFR activity remaining; format: physicochemical, human
Description: A 10-fold molar excess of the photoaffinity analog was mixed with the enzyme, and the volume adjusted to a protein concentration of 1 mg/ml using 10 mM Tris-HCl buffer (pH 7.5). The mixture was kept in ice at a 10 cm distance from the light source while photoactivation was carried out for 5 minutes with occasional stirring. An aliquot was assayed for DHFR activity before and after photoactivation. The NADP^+ -linked enzyme was purified by gel-filtration using 10 mM sodium phosphate buffer, pH 7.2, containing 20 mM NaCl. Fractions were assayed for DHFR activity before they were pooled for protein estimation (using Pierce BCA reagent) and determination of incorporation of NADP^+ moieties per enzyme molecule.
[…] Percent stability was calculated by comparing with a sample kept at 4° C.

Which kidney activity levels ([1]; i.v.) does the source give for O=C([O-])CN(CCN(CC(=O)[O-])CC(=O)[O-])CCN(CC(=O)[O-])CC(=O)[O-].[111In+3].[H+].[H+] [^111 In-DTPA] here?
The kidney activity levels was “Low activity levels”.

What about the “urine activity (clearance via urine)” value ([1]; i.v. 140-190 μg, 120 μCi) of the same molecule?
The value was “high urine activity levels”.

And the “injected dose per gram (ml) remaining in the serum” value ([2]; 1 hour post injection, i.v., 9 μg)?
The value was “less than 0.2%”.

And the “kidney activity (clearance via urine)” value ([2]; nude mouse, all time points 1-24 hours)?
Its value is “activity in the kidney at all time points”.

What about the liver uptake ([2]; nude mouse, i.v.) of the same molecule?
Its liver uptake is “not seen”.

And the “clearance from the circulation” value [3]?
The value was “clear rapidly from the circulation”.

What about the “retention in normal tissues” value [3] of the same molecule?
Its value is “little retention in normal tissues”.

And the whole body clearance [4]?
Its whole body clearance is “clear from the mice at similar rates”.

For CN(Cc1cnc2nc(N)nc(N)c2n1)c1ccc(C(=O)N[C@@H](CCC(=O)NNC(=O)CN(CCN(CCN(CC(=O)O)CC(=O)O)CC(=O)O)CC(=O)O)C(=O)O)cc1 [DTPA-MTX], which “inhibition of/binding to 16.88 bound rhDHFR compared with equivalent activity of native rhDHFR” value (16.88 bound rhDHFR) is on record?
Its value is “confirmed the methotrexate data”.

What about the “inhibitory effect on dihydrofolate reduction compared with MTX” value (rhDHFR [5]) of the same molecule?
Its value is “virtually identical to MTX inhibition”.

Which “protection of rhDHFR from thermal denaturation” value [6] does the source give for NC(=O)c1ccc[n+]([C@@H]2O[C@H](COP(=O)([O-])OP(=O)(O)OC[C@H]3O[C@@H](n4cnc5c(N)ncnc54)[C@H](OP(=O)(O)O)[C@@H]3O)[C@@H](O)[C@H]2O)c1 [NADP] here?
Its value is “capable of protecting”.

Which “protection of rhDHFR from thermal denaturation” value [6] does the source give for NC(=O)C1=CN([C@@H]2O[C@H](COP(=O)(O)OP(=O)(O)OC[C@H]3O[C@@H](n4cnc5c(N)ncnc54)[C@H](OP(=O)(O)O)[C@@H]3O)[C@@H](O)[C@H]2O)C=CC1 [NADPH, nicotinadenine dinucleotide phosphate] here?
The value was “capable of protecting”.

B1: ANPAP-NADP^+ -rhDHFR: DHFR stabilized through covalent conjugation with a photoaffinity analog of NADP^+ (ANPAP-NADP) followed by photoactivation (conjugate, UniProt P00374 1-187, looked up)
Dihydrofolate reductase: MVGSLNCIVAVSQNMGIGKNGDLPWPPLRNEFRYFQRMTTTSSVEGKQNLVIMGKKTWFSIPEKNRPLKGRINLVLSRELKEPPQGAHFLSRSLDDALKLTEQPELANKVDMVWIVGGSSVYKEAMNHPGHLKLFVTRIMQDFESDTFFPEIDLEKYKLLPEYPGVLSDVQEEKGIKYKFEVYEKND
modifications: photo-crosslinked ANPAP-NADP+ analog
For B1, which “Stability: percent enzyme activity remaining after incubation” value (rhDHFR [7]; 0 minutes, 37° C.) is on record?
Its value is 100%.

What about the “Stability: percent enzyme activity remaining after incubation” value (rhDHFR [7]; 60 minutes, 37° C.) of the same molecule?
Its value is 82%.

And the “Stability: percent enzyme activity remaining after incubation” value (rhDHFR [7]; 120 minutes, 37° C.)?
The value was 78%.

And the “Stability: percent enzyme activity remaining after incubation” value (rhDHFR [7]; 180 minutes, 37° C.)?
Its value is 78%.

And the “Stability: percent enzyme activity remaining after incubation” value (rhDHFR [7]; 1080 minutes, 23° C.)?
Its value is 67%.

What about the “Percent remaining activity following photoactivation” value (rhDHFR [7]; photoactivation time 5 minutes) of the same molecule?
The value was 100%.

B2: rhDHFR: recombinant human dihydrofolate reductase (protein, UniProt P00374 1-187, looked up)
Dihydrofolate reductase: B1 Dihydrofolate reductase
Which results are given for B2?
Stability: percent enzyme activity remaining after incubation (rhDHFR [7]; 0 minutes, 37° C.): 100%; Stability: percent enzyme activity remaining after incubation (rhDHFR [7]; 30 minutes, 37° C.): 18%; Stability: percent enzyme activity remaining after incubation (rhDHFR [7]; 60 minutes, 37° C.): 10%
